Measurements reported in patent US20060222636A1, “Compositions, methods and kits relating to reprogramming adult differentiated cells and production of embryonic stem cell-like cells” (The Rockefeller University, priority 2003, published 2006).
Like-named read-outs stand apart in the source and are kept apart here.

Key:
[1] = tested on: Erk1/2 and GSK-3β phosphorylation; assay type: cell-based, human; details: for M. leprae-induced Erk1/2 phosphorylation in presence of PKC inhibitor: 20 nM, serum starved 48 hours; for phosphorylation of Erk1/2 and GSK-3β in infected Schwann cells in presence of inhibitor: synchronized, continuous presence of inhibitor (15 μM)
Description: The cDNA produced was subsequently PCR amplified for 30 cycles using the various specific primers and fluorescent probes in a 384-well GeneAmp PCR system 9700 (Applied Biosystems, Foster City, Calif.). The level of each target gene was normalized to GAPDH gene as an endogenous reference. The data obtained were analyzed with the ABI PRISM 7900 HT Sequence detection system (Bulletin No. 2, Applied Biosystems). For control reactions the same master mixes were used but excluding the template RNA. Synchronization of Primary Schwann Cell and Kinase Inhibition Schwann cells that had been cultured for 30 days were synchronized for 48 hours by removing growth factor and serum. Schwann cells were then released to progress through the cell cycle by addition of 10% serum to the culture. Cytoplasmic and nuclear extracts obtained from these synchronized cells were prepared before (time 0) and after addition of serum at various time points (i.e., 9 to 18 hours after release). For Erk1/2 and pI3-k inhibition, pre-evaluated concentrations of specific MEK1/2 inhibitor UO126 (15 μM) and PD098059 (15 μM), pI3-k inhibitor LY294002 (15 μM) (Cell Signaling Technology) and SOS inhibitor (10 μg) (Upstate Biotechnology, Lake Placid, N.Y.) were added to the culture medium during synchronization and serum release, and cytoplasmic and nuclear extracts were prepared as described above and the proteins were immunoblotted using antibodies to phospho-Erk1/2, phospho-Akt, phosphoGSK-3β and cyclin-D1. For SOS inhibition studies, cell permeable SOS inhibitory peptide was added and the cells were treated as described above to analyze the effect of SOS inhibitor on M. leprae-induced activation of the above-referenced signaling molecules. None of the inhibitors examined produced any detectable apoptosis or non-apoptotic Schwann cell death under these conditions.
(§1) Human Schwann cells that had been cultured for 30 days with and without M. leprae were synchronized for 48 hours and then released to re-enter the cell cycle by addition of 10% serum. Cytoplasmic and nuclear extracts of these synchronized cells were prepared before and after addition of serum at different time points (9 to 18 hours after release). For Erk1/2 and PI3-k inhibition, pre-evaluated concentrations of specific MEK1/2 inhibitor UO126 (15 μM) and PD098059 (15 μM), pI3-k inhibitor LY294002 (15 μM) (Cell Signaling Technology), SOS inhibitor (10 μg) (Upstate Biotechnology, Lake Placid N.Y.) were used. For PKC and lck inhibition, pan-PKC inhibitor bisindolylmaleimide-I (20 nM) and Lck inhibitor PP2 (10 μM) (Calbiochem-Novabiochem Corporation, CA), respectively, were added to the culture medium during synchronization, and cytoplasmic and nuclear extracts were prepared as described above and were immunoblotted with antibodies to various phospho-specific signaling antibodies. None of the inhibitors produced any apoptosis or Schwann cell death under these conditions.

PKCα/βII = test: Phospho-PKC isoform immunoblot; assay type: cell-based, human
Description: as §1
Although PKC is known to play a role in oligodendrocyte proliferation and differentiation (Bhat et al., 1992, J. Neurosci. Res. 32:340-349; Stariha and Kim, 2001, Microsc. Res. Tech. 52:680-688), much less is known about its function in Schwann cells. […]

Lck/Ser-158 = test: Phospho-Lck/Ser-158 immunoblot; assay type: cell-based, human; details: PKC inhibitor (10 μM)
Description: as §1, with “For PKC and lck inhibition, pan-PKC inhibitor bisindolylmaleimide-I (20 nM) and Lck inhibitor PP2 (10 μM) (Calbiochem-Novabiochem Corporation, CA), respectively, were added to the culture medium during synchronization, and cytoplasmic and nuclear extracts were prepared as described above and were immunoblotted with antibodies to various phospho-specific signaling antibodies.” left out
To examine if the addition of exogenous Heregulin-β1 can induce Lck/Ser-158 phosphorylation, human Schwann cells were serum-starved for 48 hours and then incubated with 10 nM […] for 30 minutes. Subsequently, total protein lysates were prepared and the phosphorylation state of Erk1/2, PKC-alpha-betaII/βII and Lck-Ser158 were examined using phospho-specific antibodies.

cyclin D1 = test: Nuclear cyclin D1 immunoblot of synchronized Schwann cells; assay type: cell-based, human; details: added to MEK and Pi3-kinase inhibitors
Description: Protein expression intensity was normalized using β-actin expression as an internal control marker and quantified with a densitometer (Alpha Innotech Corporation, San Leandro, Calif.) using the Alpha Imager 2200 v.5.5 software. For preparation of nuclear and cytoplasmic extracts, cells were incubated in a buffer containing 10 mM HEPES pH 7.5, 60 mM KCl, 1 mM EDTA, 0.1% NP-40, 1 mM DTT, 1 mM PMSF and protease inhibitors cocktail for 10 minutes on ice. Lysates were then centrifuged for 10 minutes and the supernatant, which comprised of cytoplasmic extract, was collected. The pellet was re-suspended in a buffer containing 50 mM Tris-HCl pH 7.5, 150 mM NaCl, 1% sodium lauryl sarcosine, 1% NP-40, 0.1% SDS, 1 mM EDTA and protease inhibitors cocktail. After brief sonication, the lysates were centrifuged for 10 minutes and the supernatant, consisting of nuclear extract, was collected. The protein content in both extracts was determined using the BCA method per manufacturer's instructions (Pierce Chemical, Rockford, Ill.).
The cDNA produced was subsequently PCR amplified for 30 cycles using the various specific primers and fluorescent probes in a 384-well GeneAmp PCR system 9700 (Applied Biosystems, Foster City, Calif.). […] The data obtained were analyzed with the ABI PRISM 7900 HT Sequence detection system (Bulletin No. 2, Applied Biosystems). […]

[2] = tested on: human primary Schwann cells; test: Cell cycle FACS analysis (propidium iodide); assay type: cell-based
Description: Human primary Schwann cells, that had been cultured for 15 and 30 days with and without M. leprae were trypsinized and adjusted to equal cell number. For the experiments with kinase inhibitors, synchronized infected and control cells were treated with pre-evaluated concentrations of various inhibitors as described previously elsewhere herein, and with different combinations of inhibitors before being processed for cell cycle FACS (Lemoine and Marriott, 2001, J. Biol. Chem. 276:31851-31857). To assess the effect of Lck inhibitor on heregulin-induced cell cycle progression, synchronized Schwann cells were treated with heregulin for 30 minutes in the presence and absence of Lck inhibitor. Cells were then washed with PBS, fixed with 85% ethanol overnight at […] and suspended in 1 ml PBS containing 1% FBS, RNase A (250 μg/ml; Roche Molecular Biochemicals) and 100 μg/ml Propidium Iodide (Sigma) for 30 minutes at 37° C. Stained cells were washed twice with PBS and subjected to FACS analysis on a Becton Dickinson FACScan cytometer (Ruhl et al., 1999, J. Biol. Chem. 274: 34361-34368). The cell cycle profile was analyzed with CellQuest software (Becton & Dickinson).

human Schwann cells = test: Apoptosis markers (TUNNEL assays, immunoblot of Caspase-3, Caspase-9, PARP); assay type: cell-based; details: Camptothecin (1.5 μM)-treated Schwann cells, within 48 hours, positive control
Description: Total protein extracts were prepared from M. leprae infected and non-infected human Schwann cells in cell lysis and nuclear extraction buffer containing 62 mM Tris-HCl pH 6.8, 2% SDS, 10% Glycerol, 50 mM DTT and 0.2% protease inhibitors cocktail (Sigma, St. Louis, Mo.). Lysates were cleared by centrifugation and the protein content was determined according to the BCA method per manufacturer's instructions (PIERCE Chemical, Rockford Ill.). 40 μg of total cellular extracts were separated by sodium dodecyl sulfate-polyacrylamide gel electrophoresis (SDS-PAGE) and transferred to nitrocellulose membranes (Schleicher & Schuell, Keene, N.H.). Bound antibodies were detected using species-specific secondary antibodies coupled to HRP (Cell Signaling Technology, Beverly, Mass.) followed by enhanced chemiluminescence development (PIERCE Chemical, Rockford Ill.).
Total protein extracts were prepared by harvesting M. leprae infected human Schwann cells in cell lysis buffer and non-infected human Schwann cells in nuclear extracting buffer. Lysates were cleared by centrifugation and the protein content was determined according to the BCA method (PIERCE Chemical, Rockford Ill.). […] Protein expression intensity was normalized to β-actin expression and quantified with a densitometer (Alpha Innotech Corporation, San Leandro, Calif.) using the Alpha Imager 2200 v.5.5 software. […]

Compound: CN(C)CCCn1cc(C2=C(c3c[nH]c4ccccc34)C(=O)NC2=O)c2ccccc21 [bisindolylmaleimide-I]
- M. leprae-induced Erk1/2 phosphorylation in presence of PKC inhibitor ([1]; with MEK1/2 and Pi3K inhibitors): significantly blocked
- M. leprae-induced Erk1/2 phosphorylation in presence of PKC inhibitor ([1]; with MEK1/2 and Pi3K inhibitors, listed as PKC inhibitor): dramatically down-regulated
- apoptosis or cell death of treated cells ([1]; bisindolylmaleimide-I 20 nM): no apoptosis or cell death
- M. leprae-induced phospho-PKCα/βII in presence of pan-PKC inhibitor (PKCα/βII): markedly blocked
- phosphorylation at Lck/Ser-158 in presence of PKC inhibitor (Lck/Ser-158; listed as PKC inhibitor): completely abolished
- phosphorylation at Lck/Ser-158 in presence of PKC inhibitor (Lck/Ser-158; listed as PKCI): abrogated

Compound: O=c1cc(N2CCOCC2)oc2c(-c3ccccc3)cccc12 [LY294002]
- phosphorylation of Erk1/2 and GSK-3β in infected Schwann cells in presence of inhibitor [1]: not inhibited

Compound: CC(C)(C)n1nc(-c2ccc(Cl)cc2)c2c(N)ncnc21 [PP2]
- M. leprae-induced phosphorylation of Erk1/2 in presence of Lck inhibitor ([1]; 10 μM, with MEK1/2 and Pi3K inhibitors, 48 hours): significant reduction
- nuclear cyclin D1 in presence of Lck inhibitor (cyclin D1; listed as Lck inhibitor): dramatically reduced
- nuclear cyclin D1 in presence of Lck inhibitor (cyclin D1; listed as Lck-inhibitor): significant blockade
- net M. leprae-induced S-phase cell population in presence of Lck inhibitor ([2]; added to MEK and Pi3-kinase inhibitors): dramatically reduced
- net S-phase population induced by exogenous heregulin-β1 in presence of Lck inhibitor ([2]; listed as Lck inhibitor): did not affect
- net S-phase population induced by exogenous heregulin-β1 in presence of Lck inhibitor ([2]; listed as Lck-inhibitor): fails to respond

Compound: CC[C@@]1(O)C(=O)OCc2c1cc1n(c2=O)Cc2cc3ccccc3nc2-1 [Camptothecin]
- expression of apoptosis markers caspase 3, caspase 9, PARP (human Schwann cells): induced the expression of these apoptotic markers
- expression of apoptosis markers caspase 3, caspase 9, PARP (human Schwann cells; listed as camptothecin): express all three apoptosis markers

Compound: N#CC(=C(/N)Sc1ccccc1N)/C(C#N)=C(\N)Sc1ccccc1N [U0126]
- phosphorylation of Erk1/2 and GSK-3β in infected Schwann cells in presence of inhibitor [1]: not inhibited
